{"source": "patent US20250215030A1", "about": "“STAT MODULATORS AND USES THEREOF” (Recludix Pharma, Inc., priority 2022, published 2025)", "key": {"[1]": {"molecular_target": "T1, Recombinant STAT3 protein (STAT3(G127-I722)) (Homo sapiens, UniProt P40763)", "T1 construct": "STAT3(G127-I722)", "T1 sequence (P40763 127-722, species assumed)": "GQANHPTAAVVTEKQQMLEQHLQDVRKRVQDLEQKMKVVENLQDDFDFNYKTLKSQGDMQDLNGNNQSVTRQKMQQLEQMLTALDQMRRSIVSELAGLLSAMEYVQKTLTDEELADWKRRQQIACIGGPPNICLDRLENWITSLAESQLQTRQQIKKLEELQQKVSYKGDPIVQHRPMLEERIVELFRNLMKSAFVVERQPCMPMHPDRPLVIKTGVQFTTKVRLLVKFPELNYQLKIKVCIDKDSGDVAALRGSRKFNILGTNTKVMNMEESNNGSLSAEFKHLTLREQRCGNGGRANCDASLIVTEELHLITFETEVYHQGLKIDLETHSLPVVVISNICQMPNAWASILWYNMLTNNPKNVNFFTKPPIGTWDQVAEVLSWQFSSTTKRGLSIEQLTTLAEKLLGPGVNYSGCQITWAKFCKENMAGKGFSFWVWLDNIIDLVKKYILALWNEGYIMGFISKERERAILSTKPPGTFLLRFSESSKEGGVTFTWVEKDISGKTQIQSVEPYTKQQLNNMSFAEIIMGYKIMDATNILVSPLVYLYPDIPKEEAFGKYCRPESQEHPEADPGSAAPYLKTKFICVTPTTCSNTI", "experiment": "STAT3 Fluorescence Polarization (FP) Assay", "format": "binding", "settings": "STAT3(G127-I722) 25 nM, probe 5-FAM-GpYLPQTV-NH2 2 nM, 45-minute incubation", "method_in_brief": "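STAT3(G127-I722) at 25 nM and 5-FAM-GpYLPQTV-NH2 probe at 2 nM in HEPES pH 7.4 buffer with NaCl, EDTA, Tween 20, DTT; 1% DMSO. FP read after 45 min at room temperature; IC50 by nonlinear regression of mP vs log concentration, binned A ≤100 nM to D >10 μM.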"}, "[2]": {"molecular_target": "T2, Recombinant STAT6 protein (STAT6(W123-T658)) (Homo sapiens, UniProt P42226)", "T2 construct": "STAT6(W123-T658)", "T2 sequence (P42226 123-658)": "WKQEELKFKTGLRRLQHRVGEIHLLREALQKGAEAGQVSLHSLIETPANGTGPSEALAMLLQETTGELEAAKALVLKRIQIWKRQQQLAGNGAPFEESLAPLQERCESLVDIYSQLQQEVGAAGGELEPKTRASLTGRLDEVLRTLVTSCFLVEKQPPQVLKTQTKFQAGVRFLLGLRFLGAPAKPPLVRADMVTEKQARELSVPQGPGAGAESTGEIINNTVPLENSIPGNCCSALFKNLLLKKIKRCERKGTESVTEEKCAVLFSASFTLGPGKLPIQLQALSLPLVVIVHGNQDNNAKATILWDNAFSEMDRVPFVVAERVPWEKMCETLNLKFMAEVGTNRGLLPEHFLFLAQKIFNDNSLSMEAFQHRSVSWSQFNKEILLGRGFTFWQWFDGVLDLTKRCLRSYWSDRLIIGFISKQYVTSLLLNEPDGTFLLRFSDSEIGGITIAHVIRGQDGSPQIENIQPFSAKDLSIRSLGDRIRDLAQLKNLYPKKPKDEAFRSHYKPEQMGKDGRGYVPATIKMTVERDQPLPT", "experiment": "STAT6 Fluorescence Polarization (FP) Assay", "format": "binding", "settings": "STAT6(W123-T658) 250 nM, probe 5-FAM-ApYKPFQDLI-NH2 2 nM, 45-minute incubation", "method_in_brief": "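STAT6 (W123-T658) at 250 nM mixed with 2 nM 5-FAM-ApYKPFQDLI-NH2 probe in HEPES pH 7.4 buffer with DTT and Tween 20, 1% DMSO final. Polarization read after 45 min at room temperature; IC50 by nonlinear regression of mP versus log concentration, reported in bins A–D.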"}}}
{"compound": "Cc1cc(C2CN(C(=O)[C@@H]3CC[C@@H]4C[C@H]5C[C@H]5C[C@H](NC(=O)c5cc6cc(C(F)P(=O)(O)O)ccc6s5)C(=O)N43)C2)on1", "note": "(stereo partly drawn) [Example 328, (fluoro(2-(((3S,6S,7aS,8aR,9aR)-3-(3-(3-methylisoxazol-5-yl)azetidine-1-carbonyl)-5-oxodecahydro-1H-cyclopropa[d]pyrrolo[1,2-a]azocin-6-yl)carbamoyl)benzo[b]thiophen-5-yl)methyl)phosphonic acid]", "values": [{"measurement": "IC50", "setting": "[1]", "result": "100 to 1000", "unit": "nM"}, {"measurement": "IC50", "setting": "[2]", "result": "3 to 30", "unit": "µM"}]}
{"compound": "O=C(N[C@H]1C[C@@H]2C[C@@H]2C[C@H]2CC[C@@H](C(=O)N3CC(Cc4ccc(F)cc4F)C3)N2C1=O)c1cc2cc(CP(=O)(O)O)ccc2s1", "note": "[Example 377, ((2-(((3S,6S,7aS,8aR,9aR)-3-(3-(2,4-difluorobenzyl)azetidine-1-carbonyl)-5-oxodecahydro-1H-cyclopropa[d]pyrrolo[1,2-a]azocin-6-yl)carbamoyl)benzo[b]thiophen-5-yl)methyl)phosphonic acid]", "values": [{"measurement": "IC50", "setting": "[1]", "result": "100 to 1000", "unit": "nM"}, {"measurement": "IC50", "setting": "[2]", "result": "3 to 30", "unit": "µM"}]}
{"compound": "O=C(N[C@H]1C[C@H]2C[C@H]2C[C@H]2CC[C@@H](C(=O)NCc3c[nH]c4ncccc34)N2C1=O)c1cc2cc(C(F)(F)P(=O)(O)O)ccc2s1", "note": "[Compound 124, ((2-(((3S,6S,7aR,8aS,9aR)-3-(((1H-pyrrolo[2,3-b]pyridin-3-yl)methyl)carbamoyl)-5-oxodecahydro-1H-cyclopropa[d]pyrrolo[1,2-a]azocin-6-yl)carbamoyl)benzo[b]thiophen-5-yl)difluoromethyl)phosphonic acid]", "values": [{"measurement": "IC50", "setting": "[1]", "result": "< 100", "unit": "nM"}, {"measurement": "IC50", "setting": "[2]", "result": "0.3 to 3", "unit": "µM"}]}
{"compound": "O=C(N[C@H]1C[C@@H]2C[C@@H]2C[C@H]2CC[C@@H](C(=O)Nc3ccc(-c4ccccc4)cc3)N2C1=O)c1cc2cc(C(F)(F)P(=O)(O)O)ccc2s1", "note": "[Example 3, ((2-(((3S,6S,7aS,8aR,9aR)-3-([1,1′-biphenyl]-4-ylcarbamoyl)-5-oxodecahydro-1H-cyclopropa[d]pyrrolo[1,2-a]azocin-6-yl)carbamoyl)benzo[b]thiophen-5-yl)difluoromethyl)phosphonic acid]", "values": [{"measurement": "IC50", "setting": "[1]", "result": "100 to 1000", "unit": "nM"}, {"measurement": "IC50", "setting": "[2]", "result": "0.3 to 3", "unit": "µM"}]}
{"compound": "O=C(N[C@H]1C[C@@H]2C[C@@H]2C[C@H]2CC[C@@H](C(=O)N3CCN(C(=O)c4cc[nH]n4)CC3)N2C1=O)c1cc2cc(C(F)(F)P(=O)(O)O)ccc2s1", "note": "[Compound 105, ((2-(((3S,6S,7aS,8aR,9aR)-3-(4-(1H-pyrazole-3-carbonyl)piperazine-1-carbonyl)-5-oxodecahydro-1H-cyclopropa[d]pyrrolo[1,2-a]azocin-6-yl)carbamoyl)benzo[b]thiophen-5-yl)difluoromethyl)phosphonic acid]", "values": [{"measurement": "IC50", "setting": "[1]", "result": "100 to 1000", "unit": "nM"}, {"measurement": "IC50", "setting": "[2]", "result": "0.3 to 3", "unit": "µM"}]}
{"compound": "COc1ccncc1C1CN(C(=O)[C@@H]2CC[C@@H]3C[C@@H]4C[C@@H]4C[C@H](NC(=O)c4cc5cc(C(F)P(=O)(O)O)ccc5s4)C(=O)N32)C1", "note": "(stereo partly drawn) [Example 318, (fluoro(2-(((3S,6S,7aR,8aS,9aR)-3-(3-(4-methoxypyridin-3-yl)azetidine-1-carbonyl)-5-oxodecahydro-1H-cyclopropa[d]pyrrolo[1,2-a]azocin-6-yl)carbamoyl)benzo[b]thiophen-5-yl)methyl)phosphonic acid]", "values": [{"measurement": "IC50", "setting": "[1]", "result": "< 100", "unit": "nM"}, {"measurement": "IC50", "setting": "[2]", "result": "3 to 30", "unit": "µM"}]}
{"compound": "Cc1ccncc1C1CN(C(=O)[C@@H]2CC[C@@H]3C[C@H]4C[C@H]4C[C@H](NC(=O)c4cc5cc(CP(=O)(O)O)ccc5s4)C(=O)N32)C1", "note": "[Example 277, ((2-(((3S,6S,7aS,8aR,9aR)-3-(3-(4-methylpyridin-3-yl)azetidine-1-carbonyl)-5-oxodecahydro-1H-cyclopropa[d]pyrrolo[1,2-a]azocin-6-yl)carbamoyl)benzo[b]thiophen-5-yl)methyl)phosphonic acid]", "values": [{"measurement": "IC50", "setting": "[1]", "result": "100 to 1000", "unit": "nM"}, {"measurement": "IC50", "setting": "[2]", "result": "> 30", "unit": "µM"}]}
{"compound": "O=C(N[C@H]1C[C@H]2C[C@H]2C[C@H]2CC[C@@H](C(=O)N[C@@H]3CCN(c4cccnc4)C3)N2C1=O)c1cc2cc(C(F)(F)P(=O)(O)O)ccc2s1", "note": "[Compound 47, (difluoro(2-(((3S,6S,7aR,8aS,9aR)-5-oxo-3-(((R)-1-(pyridin-3-yl)pyrrolidin-3-yl)carbamoyl)decahydro-1H-cyclopropa[d]pyrrolo[1,2-a]azocin-6-yl)carbamoyl)benzo[b]thiophen-5-yl)methyl)phosphonic acid]", "values": [{"measurement": "IC50", "setting": "[1]", "result": "< 100", "unit": "nM"}, {"measurement": "IC50", "setting": "[2]", "result": "0.3 to 3", "unit": "µM"}]}
{"compound": "CC(=O)N1C[C@@H](F)[C@@H](NC(=O)[C@@H]2CC[C@@H]3C[C@@H]4C[C@@H]4C[C@H](NC(=O)c4cc5cc(C(F)(F)P(=O)(O)O)ccc5s4)C(=O)N32)C1", "note": "[Compound 127, ((2-(((3S,6S,7aR,8aS,9aR)-3-(((3S,4R)-1-acetyl-4-fluoropyrrolidin-3-yl)carbamoyl)-5-oxodecahydro-1H-cyclopropa[d]pyrrolo[1,2-a]azocin-6-yl)carbamoyl)benzo[b]thiophen-5-yl)difluoromethyl)phosphonic acid]", "values": [{"measurement": "IC50", "setting": "[1]", "result": "< 100", "unit": "nM"}, {"measurement": "IC50", "setting": "[2]", "result": "3 to 30", "unit": "µM"}]}
{"compound": "Cc1ccccc1C1CN(C(=O)[C@@H]2CC[C@@H]3C[C@H]4C[C@H]4C[C@H](NC(=O)c4cc5cc(C(F)(F)P(=O)(O)O)ccc5s4)C(=O)N32)C1", "note": "[Compound 85, (difluoro(2-(((3S,6S,7aS,8aR,9aR)-5-oxo-3-(3-(o-tolyl)azetidine-1-carbonyl)decahydro-1H-cyclopropa[d]pyrrolo[1,2-a]azocin-6-yl)carbamoyl)benzo[b]thiophen-5-yl)methyl)phosphonic acid]", "values": [{"measurement": "IC50", "setting": "[1]", "result": "< 100", "unit": "nM"}, {"measurement": "IC50", "setting": "[2]", "result": "0.3 to 3", "unit": "µM"}]}
{"compound": "O=C(N[C@H]1C[C@@H]2C[C@@H]2C[C@H]2CC[C@@H](C(=O)N3CCC4C3CN4c3cccnc3)N2C1=O)c1cc2cc(C(F)(F)P(=O)(O)O)ccc2s1", "note": "(stereo partly drawn) [Example 259, (difluoro(2-(((3S,6S,7aS,8aR,9aR)-5-oxo-3-(6-(pyridin-3-yl)-2,6-diazabicyclo[3.2.0]heptane-2-carbonyl)decahydro-1H-cyclopropa[d]pyrrolo[1,2-a]azocin-6-yl)carbamoyl)benzo[b]thiophen-5-yl)methyl)phosphonic acid]", "values": [{"measurement": "IC50", "setting": "[1]", "result": "< 100", "unit": "nM"}, {"measurement": "IC50", "setting": "[2]", "result": "0.3 to 3", "unit": "µM"}]}
{"compound": "Cn1cc(CC2CN(C(=O)[C@@H]3CC[C@@H]4C[C@H]5C[C@H]5C[C@H](NC(=O)c5cc6cc(CP(=O)(O)O)ccc6s5)C(=O)N43)C2)cn1", "note": "[Example 379, ((2-(((3S,6S,7aS,8aR,9aR)-3-(3-((1-methyl-1H-pyrazol-4-yl)methyl)azetidine-1-carbonyl)-5-oxodecahydro-1H-cyclopropa[d]pyrrolo[1,2-a]azocin-6-yl)carbamoyl)benzo[b]thiophen-5-yl)methyl)phosphonic acid]", "values": [{"measurement": "IC50", "setting": "[1]", "result": "1000 to 10000", "unit": "nM"}, {"measurement": "IC50", "setting": "[2]", "result": "3 to 30", "unit": "µM"}]}
{"compound": "O=C(N[C@H]1C[C@@H]2C[C@@H]2C[C@H]2CC[C@@H](C(=O)N3CC(C(=O)N4CCOCC4)C3)N2C1=O)c1cc2cc(C(F)P(=O)(O)O)ccc2s1", "note": "(stereo partly drawn) [Compound 18, (fluoro(2-(((3S,6S,7aS,8aR,9aR)-3-(3-(morpholine-4-carbonyl)azetidine-1-carbonyl)-5-oxodecahydro-1H-cyclopropa[d]pyrrolo[1,2-a]azocin-6-yl)carbamoyl)benzo[b]thiophen-5-yl)methyl)phosphonic acid]", "values": [{"measurement": "IC50", "setting": "[1]", "result": "< 100", "unit": "nM"}, {"measurement": "IC50", "setting": "[2]", "result": "3 to 30", "unit": "µM"}]}
{"compound": "Cc1cccnc1C1CN(C(=O)[C@@H]2CC[C@@H]3C[C@@H]4C[C@@H]4C[C@H](NC(=O)c4cc5cc(C(F)(F)P(=O)(O)O)ccc5s4)C(=O)N32)C1", "note": "[Compound 58, (difluoro(2-(((3S,6S,7aR,8aS,9aR)-3-(3-(3-methylpyridin-2-yl)azetidine-1-carbonyl)-5-oxodecahydro-1H-cyclopropa[d]pyrrolo[1,2-a]azocin-6-yl)carbamoyl)benzo[b]thiophen-5-yl)methyl)phosphonic acid]", "values": [{"measurement": "IC50", "setting": "[1]", "result": "< 100", "unit": "nM"}, {"measurement": "IC50", "setting": "[2]", "result": "3 to 30", "unit": "µM"}]}
{"compound": "O=C(N[C@H]1C[C@H]2C[C@H]2C[C@H]2CC[C@@H](C(=O)N3CC(C(=O)N4CCOCC4)C3)N2C1=O)c1cc2cc(C(F)(F)P(=O)(O)O)ccc2s1", "note": "[Compound 71, (difluoro(2-(((3S,6S,7aR,8aS,9aR)-3-(3-(morpholine-4-carbonyl)azetidine-1-carbonyl)-5-oxodecahydro-1H-cyclopropa[d]pyrrolo[1,2-a]azocin-6-yl)carbamoyl)benzo[b]thiophen-5-yl)methyl)phosphonic acid]", "values": [{"measurement": "IC50", "setting": "[1]", "result": "< 100", "unit": "nM"}, {"measurement": "IC50", "setting": "[2]", "result": "3 to 30", "unit": "µM"}]}
{"compound": "O=C(N[C@H]1C[C@H]2C[C@H]2C[C@H]2CC[C@@H](C(=O)N3CC(c4ccon4)C3)N2C1=O)c1cc2cc([C@H](F)P(=O)(O)O)ccc2s1", "note": "(single isomer, unassigned) [Example 346]", "values": [{"measurement": "IC50", "setting": "[1]", "result": "< 100", "unit": "nM"}, {"measurement": "IC50", "setting": "[2]", "result": "3 to 30", "unit": "µM"}]}
